Experimental data published in US8039490B2, “Benzoyl-piperidine derivatives as dual modulators of the 5-HT2A and D3 receptors” (Hoffmann-La Roche Inc., priority 2006, dated 2011).
Several values for one entry are separate records, joined by “and”; a condition that tells them apart may be missing. Equal values may be shown once.

How the values were obtained:
[1] = target: T1, human D2 dopamine receptor (Homo sapiens, UniProt P14416); experiment: Radioligand binding, human D2 receptor ([3H]-spiperone); details: third value of the cell; membranes of transfected HEK-293 EBNA cells, 0.7 nM [3H]-spiperone; read-out: Ki(nM) D3/5HT2A/D2: D2
T1 construct: expressed in transfected cells; host or cells: HEK-293 EBNA cells (transient transfection), membrane preparation
T1 sequence (P14416 whole entry): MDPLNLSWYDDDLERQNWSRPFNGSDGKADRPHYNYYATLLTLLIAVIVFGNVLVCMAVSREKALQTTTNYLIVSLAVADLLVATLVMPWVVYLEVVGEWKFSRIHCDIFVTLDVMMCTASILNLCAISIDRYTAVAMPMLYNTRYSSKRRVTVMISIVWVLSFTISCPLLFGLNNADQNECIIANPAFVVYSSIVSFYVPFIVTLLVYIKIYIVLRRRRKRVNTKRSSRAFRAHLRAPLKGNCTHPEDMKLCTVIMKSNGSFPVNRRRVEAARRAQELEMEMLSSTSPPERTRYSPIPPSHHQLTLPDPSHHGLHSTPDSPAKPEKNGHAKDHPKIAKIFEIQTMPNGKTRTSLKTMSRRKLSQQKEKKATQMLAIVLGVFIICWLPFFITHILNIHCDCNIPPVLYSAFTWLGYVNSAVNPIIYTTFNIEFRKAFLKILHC
Experimental: (§1) The cells were harvested 48 h post-transfection, washed three times with cold PBS and stored at −80° C. prior to use. The pellet was suspended in cold 50 mM Tris-HCl buffer containing 10 mM EDTA (pH 7.4) and homogenized with a Polytron (Kinematica AG, Basel, Switzerland) for 20-30 sec at 12.000 rpm. After centrifugation at 48.000×g for 30 min at 4° C., the pellet was resuspended in cold 10 mM Tris-HCl buffer containing 0.1 mM EDTA (pH 7.4), homogenized, and centrifuged as above. This pellet was further resuspended in a smaller volume of ice cold 10 mM Tris-HCl buffer containing 0.1 mM EDTA (pH 7.4) and homogenized with a Polytron for 20-30 sec at 12.000 rpm. The protein content of this homogenate was determined with the Bio-Rad (Bradford) Protein Assay (Biorad Laboratories GmbH, München, Germany) according to the instructions of the manufacturer using gamma globulin as the standard. This homogenate was stored at −80° C. in aliquots and thawed immediately prior to use.
(§2) Aliquots of membrane preparations were thawed at RT, resupended in assay buffer (D2, D3: 50 mM Tris-HCl, 120 mM NaCl, 5 mM MgCl2, 1 mM EDTA, 5 mM KCl, 1.5 mM CaCl2, pH=7.4; 5-HT2A: 50 mM Tris-HCl, 10 mM MgCl2, 1 mM EGTA, pH=7.4), homogenized with a Polytron for 20-30 sec at 12.000 rpm and adjusted to a final concentration of approximately 7.5 μg protein/well (D2, D3) and 15 μg protein/well (5-HT2A), respectively.
(§3) The binding affinity (Ki) of the compounds was determined using radioligand binding. […] The nonspecific binding was determined with equally composed reaction mixtures in the presence of 10 μM unlabelled spiperone. Per well 45 μl of Microscint 40 (Perkin Elmer, Schwerzenbach, Switzerland) was added, plates for sealed, shaken for 20 min and counted for 3 min on a Topcount Microplate Scintillation Counter (Canberra Packard SA, Zürich, Switzerland) with quenching correction.
(§4) The CPM value for each duplicate of a concentration of competing compound was averaged (y1), then the % specific binding was calculated according to the equation (((y1−non-specific)/(total binding-non-specific))×100). Graphs were plotted with the % specific binding using XLfit, a curve fitting program that iteratively plots the data using Levenburg Marquardt algorithm. The single site competition analysis equation used was y=A+((B−A)/(+((x/C)^D))), where y is the % specific binding, A is the minimum y, B is the maximum y, C is the IC50, x is the log10 of the concentration of the competing compound and D is the slope of the curve (the Hill Coefficient). […] The affinity constant (Ki) was calculated using the Cheng-Prusoff equation KI =(IC50/1+([L]/Kd), where [L] is the concentration of radioligand and Kd is the dissociation constant of the radioligand at the receptor as determined by the saturation isotherm.

[2] = target: T2, human D3 dopamine receptor (Homo sapiens, UniProt P35462); experiment: Radioligand binding, human D3 receptor ([3H]-spiperone); details: first value of the cell; membranes of transfected HEK-293 EBNA cells, 0.5 nM [3H]-spiperone; read-out: Ki(nM) D3/5HT2A/D2: D3
T2 construct: expressed in transfected cells; host or cells: HEK-293 EBNA cells (transient transfection), membrane preparation
T2 sequence (P35462 whole entry): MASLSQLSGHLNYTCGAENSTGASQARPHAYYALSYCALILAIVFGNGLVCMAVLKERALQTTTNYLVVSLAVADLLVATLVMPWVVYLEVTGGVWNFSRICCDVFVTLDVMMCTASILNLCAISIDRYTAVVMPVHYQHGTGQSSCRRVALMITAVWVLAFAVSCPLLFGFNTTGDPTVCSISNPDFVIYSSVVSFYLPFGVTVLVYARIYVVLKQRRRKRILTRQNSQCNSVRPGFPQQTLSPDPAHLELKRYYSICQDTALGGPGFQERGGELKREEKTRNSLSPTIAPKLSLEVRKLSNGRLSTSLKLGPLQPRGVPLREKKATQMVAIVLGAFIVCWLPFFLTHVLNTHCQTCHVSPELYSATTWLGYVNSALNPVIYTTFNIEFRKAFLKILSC
Experimental: as §1, §2, §3, §4

[3] = target: T3, human 5-HT2A serotonin receptor (Homo sapiens, UniProt P28223); experiment: Radioligand binding, human 5-HT2A receptor ([3H]-ketanserin); details: second value of the cell; membranes of transfected HEK-293 EBNA cells, 1.1 nM [3H]-ketanserin; read-out: Ki(nM) D3/5HT2A/D2: 5HT2A
T3 construct: expressed in transfected cells; host or cells: HEK-293 EBNA cells (transient transfection), membrane preparation
T3 sequence (P28223 whole entry): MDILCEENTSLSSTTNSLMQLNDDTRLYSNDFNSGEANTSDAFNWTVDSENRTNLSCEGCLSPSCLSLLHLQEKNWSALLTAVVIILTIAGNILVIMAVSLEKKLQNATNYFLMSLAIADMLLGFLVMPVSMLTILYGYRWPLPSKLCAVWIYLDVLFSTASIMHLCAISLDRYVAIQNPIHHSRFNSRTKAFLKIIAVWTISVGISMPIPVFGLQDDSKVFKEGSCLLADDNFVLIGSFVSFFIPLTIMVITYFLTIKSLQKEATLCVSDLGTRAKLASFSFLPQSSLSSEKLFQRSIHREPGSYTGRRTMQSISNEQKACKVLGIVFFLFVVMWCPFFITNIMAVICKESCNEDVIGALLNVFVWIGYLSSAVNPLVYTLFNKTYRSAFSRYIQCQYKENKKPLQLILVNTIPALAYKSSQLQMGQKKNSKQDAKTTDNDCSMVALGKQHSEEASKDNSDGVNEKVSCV
Experimental: as §1, §2, §3, §4

Compound | Ki [1] [nM] | Ki [2] | Ki [3] [nM]
O=C(C#Cc1ccccc1)N[C@H]1CC[C@H](CCN2CCC(C(=O)c3ccc(F)cc3)CC2)CC1 [Example 30A28, 3-Phenyl-propynoic acid trans (4-{2-[4-(4-fluoro-benzoyl)-piperidin-1-yl]-ethyl}-cyclohexyl)-amide] | 470 | 9 nM | 5
1-(4-Ethoxy-phenyl)-3-{4-[4-(4-fluoro-benzoyl)-piperidin-1-yl]-butyl}-urea [Example 70] | 2710 | 97 nM | 22
Trans-1-(4-Chloro-phenyl)-3-(4-{2-[4-(4-fluoro-benzoyl)-piperidin-1-yl]-ethyl}-cyclohexyl)-urea [Example 39] | 1840 | 2 nM | 3
COCCC(=O)N[C@H]1CC[C@H](CCN2CCC(C(=O)c3ccc(F)cc3F)CC2)CC1 [Example 58, N-trans (4-{2-[4-(2,4-Difluoro-benzoyl)-piperidin-1-yl]-ethyl}-cyclohexyl)-3-methoxy-propionamide] | 3540 | 19 nM | 80
COCCC(=O)N[C@H]1CC[C@H](CCN2CCC(F)(C(=O)c3ccc(F)cc3)CC2)CC1 [Example 50, N-trans (4-{2-[4-Fluoro-4-(4-fluoro-benzoyl)-piperidin-1-yl]-ethyl}-cyclohexyl)-3-methoxy-propionamide] | 288 | 29 nM | 2
CN(C)C(=O)N[C@H]1CC[C@H](CCN2CCC(C(=O)c3ccc(F)cc3)CC2)CC1 [Example 42A7, Trans-3-(4-{2-[4-(4-Fluoro-benzoyl)-piperidin-1-yl]-ethyl}-cyclohexyl)-1,1-dimethyl-urea] | 176 | 86 nM | 26
COc1cc(CC(=O)N[C@H]2CC[C@H](CCN3CCC(C(=O)c4ccc(F)cc4)CC3)CC2)cc(OC)c1 [Example 30A37, 2-(3,5-Dimethoxy-phenyl)-N-trans (4-{2-[4-(4-fluoro-benzoyl)-piperidin-1-yl]-ethyl}-cyclohexyl)-acetamide] | 2000 | 29 nM | 11
COC(=O)N[C@H]1CC[C@H](CCN2CCC(C(=O)c3ccc(F)cc3)CC2)CC1 [Example 30A64, Trans (4-{2-[4-(4-Fluoro-benzoyl)-piperidin-1-yl]-ethyl}-cyclohexyl)-carbamic acid methyl ester] | 625 | 19 nM | 13
O=C(N[C@H]1CC[C@H](CCN2CCC(C(=O)c3ccc(F)cc3F)CC2)CC1)C1CCOC1 (relative stereo) [Example 61, Tetrahydro-furan-3-carboxylic acid trans (4-{2-[4-(2,4-difluoro-benzoyl)-piperidin-1-yl]-ethyl}-cyclohexyl)-amide] | 2900 | 35 nM | 64
Cc1cc(CC(=O)N[C@H]2CC[C@H](CCN3CCC(C(=O)c4ccc(F)cc4)CC3)CC2)on1 [Example 30A36] | 1280 | 26 nM | 5
CC(=O)N[C@H]1CC[C@H](CCN2CCC(C(=O)c3ccccc3Cl)CC2)CC1 [Example 72, N-trans (4-{2-[4-(2-Chloro-benzoyl)-piperidin-1-yl]-ethyl}-cyclohexyl)-acetamide] | 2130 | 39 nM | 26
CN(C(=O)N[C@H]1CC[C@H](CCN2CCC(C(=O)c3ccc(F)cc3)CC2)CC1)c1ccc(Cl)cc1 [Example 42, Trans-1-(4-Chloro-phenyl)-3-(4-{2-[4-(4-fluoro-benzoyl)-piperidin-1-yl]-ethyl}-cyclohexyl)-1-methyl-urea] | 352 | 146 nM | 11
O=C(N[C@H]1CC[C@H](CCN2CCC(C(=O)c3ccc(F)cc3)CC2)CC1)C1CCCCC1 [Example 29, Cyclohexanecarboxylic acid trans-(4-{2-[4-(4-fluoro-benzoyl)-piperidin-1-yl]-ethyl}-cyclohexyl)-amide] | 450 | 32 nM and 37 nM | 8
O=C(NC[C@@H]1C[C@H]1CN1CCC(C(=O)c2ccc(F)cc2)CC1)Nc1ccc(Cl)cc1 (relative stereo) [Example 46, 1-(4-Chloro-phenyl)-3-{Trans-2-[4-(4-fluoro-benzoyl)-piperidin-1-ylmethyl]-cyclopropylmethyl}-urea] | 30 | 15 nM | 2
O=C(CC(F)(F)F)N[C@H]1CC[C@H](CCN2CCC(C(=O)c3ccc(F)cc3)CC2)CC1 [Example 26, 3,3,3-Trifluoro-N-trans-(4-{2-[4-(4-fluoro-benzoyl)-piperidin-1-yl]-ethyl}-cyclohexyl)-propionamide] | 684 | 17 nM | 14
O=C(CCOc1ccccc1)N[C@H]1CC[C@H](CCN2CCC(C(=O)c3ccc(F)cc3)CC2)CC1 [Example 30A27, N-trans (4-{2-[4-(4-Fluoro-benzoyl)-piperidin-1-yl]-ethyl}-cydohexyl)-3-phenoxy-propionamide] | 1120 | 8 nM | 8
O=C(N[C@H]1CC[C@H](CCN2CCC(C(=O)c3ccc(F)cc3)CC2)CC1)c1ccnc2ncccc12 [Example 20, [1,8]Naphthyridine-4-carboxylic acid trans-(4-{2-[4-(4-fluoro-benzoyl)-piperidin-1-yl]-ethyl}-cyclohexyl)-amide] | 586 | 18 nM | 5
O=C(N[C@H]1CC[C@H](CCN2CCC(C(=O)c3ccc(F)cc3)CC2)CC1)c1ccc(S(=O)(=O)c2ccc(Cl)cc2)cc1 [Example 23, 4-(4-Chloro-benzenesulfonyl)-N-trans (4-{2-[4-(4-fluoro-benzoyl)-piperidin-1-yl]-ethyl}-cyclohexyl)-benzamide] | 73 | 72 nM | 5
O=C(N[C@H]1CC[C@H](CCN2CCC(C(=O)c3ccc(F)cc3)CC2)CC1)c1ccc(-n2cccc2)cc1 [Example 9] | 106 | 6 nM | 2
O=C(c1ccc(F)cc1)C1CCN(CC[C@H]2CC[C@H](NC(=O)C3(O)CC3)CC2)CC1 [Example 30A59, 1-Hydroxy-cyclopropanecarboxylic acid (trans-4-{2-[4-(4-fluoro-benzoyl)-piperidin-1-yl]-ethyl}-cyclohexyl)-amide] | 888 | 19 nM | 5
CC(C)(C(=O)N[C@H]1CC[C@H](CCN2CCC(C(=O)c3ccc(F)cc3)CC2)CC1)c1ccc(Cl)cc1 [Example 14, 2-(4-Chloro-phenyl)-N-trans (4-{2-[4-(4-fluoro-benzoyl)-piperidin-1-yl]-ethyl}-cyclohexyl)-isobutyramide] | 96 | 144 nM | 12
O=C(N[C@H]1CC[C@H](CCN2CCC(C(=O)c3ccc(F)cc3)CC2)CC1)c1ccc(Cl)cc1Cl [Example 22, 2,4-Dichloro-N-trans (4-{2-[4-(4-fluoro-benzoyl)-piperidin-1-yl]-ethyl}-cyclohexyl)-benzamide] | 149 | 15 nM | 4
O=C(N[C@H]1CC[C@H](CCN2CCC(C(=O)c3ccc(F)cc3)CC2)CC1)c1ccc(N2CCOCC2)nn1 [Example 30A25, 6-Morpholin-4-yl-pyridazine-3-carboxylic acid trans (4-{2-[4-(4-fluoro-benzoyl)-piperidin-1-yl]-ethyl}-cyclohexyl)-amide] | 1280 | 26 nM | 5
CC(=O)OCC(=O)N[C@H]1CC[C@H](CCN2CCC(C(=O)c3ccc(F)cc3)CC2)CC1 [Example 30A58, Acetic acid trans (4-{2-[4-(4-fluoro-benzoyl)-piperidin-1-yl]-ethyl}-cyclohexylcarbamoyl)-methyl ester] | 2070 | 30 nM | 15
